Assay results as given in the supplement of paper PMC11451515.

How the values were obtained:
[1] = test system: NOMO1; assay: AUC of viability dose-response curve (% viability x log10 dose units); higher = less sensitive; conditions: 48 h
Outline: (§1)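 Leukemia cells adapted to each medium (500 or 1000 cells/well, 1536-well plates) were exposed to library compounds in DMSO for 48 h at 37°C at 11 threefold doses, 47 μM to 0.79 nM. Luminescence by CellTiter-Glo One was normalised per plate to DMSO and cell-free wells, then fitted with a four-parameter log-logistic curve on log10 dose. Curves above full viability were scaled and quality-control failures removed before area under the curve was integrated by trapezoidal rule.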

[2] = test system: P12-Ichikawa; assay: as above; conditions: 48 h
Outline: as §1

[3] = test system: SEM cells; assay: as above; conditions: 48 h
Outline: as §1

[4] = test system: SEM cells; assay: cell viability relative to DMSO control; higher = less cytotoxic; conditions: 48 h
Outline: (§2)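 Three leukemia lines were tested: NOMO1 and SEM at 500 cells/well and P12-Ichikawa at 1000 cells/well. Each was adapted for at least four passages in each medium and seeded in 5 μl in 1536-well plates, and library compounds in DMSO were pin-dosed from 47 μM to 0.79 nM in 11 threefold steps. After 48 h at 37°C, CellTiter-Glo One luminescence was read. Viability is a percentage relative to DMSO wells on each plate, with cell-free wells as background.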

[5] = test system: P12-Ichikawa; assay: as above; conditions: HPLM + 10% dialyzed FBS, 48 h
Outline: as §2

C[C@@H]\1COC(=N1)\NC2=CC3=C(C=C2)N=CN=C3NC4=CC(=C(OCC5=NC=CS5)C=C4)Cl
AUC of viability dose-response curve
Conditions | [1] | [2] | [3]
HPLM + 10% dialyzed FBS | 454 | 455 | 461
RPMI 5 mM glucose + 10% FBS | 447 | 447 | 457
RPMI 5 mM glucose + 10% dialyzed FBS | 463 | 449 | 457

O=c1c(-c2ccc(O)cc2)coc2cc(O[C@@H]3O[C@H](CO)[C@@H](O)[C@H](O)[C@H]3O)ccc12
cell viability [%], [4]
Conditions | HPLM + 10% dialyzed FBS | RPMI 5 mM glucose + 10% dialyzed FBS
0.000781 µM | 114 | 124
0.00234 µM | 115 | 124
0.00702 µM | 115 | 128
0.0211 µM | 122 | 119
0.0632 µM | 114 | 135
0.19 µM | 120 | 137
0.569 µM | 123 | 126
1.71 µM | 110 | 111
5.12 µM | 121 | 118
15.4 µM | 91.1 | 100
46.1 µM | 79.1 | 70.1

AUC of viability dose-response curve
Conditions | [1] | [2] | [3]
HPLM + 10% dialyzed FBS | 456 | 473 | 459
RPMI 5 mM glucose + 10% FBS | 468 | 469 | 450
RPMI 5 mM glucose + 10% dialyzed FBS | 467 | 470 | 449

CCCC1=NC(=C2[N]1NC(=N\C2=O)/C3=CC(=CC=C3OCC)[S+]([O-])(=O)N4CCN(CC)CC4)C
[4], RPMI 5 mM glucose + 10% dialyzed FBS
Conditions | cell viability [%]
0.000781 µM | 125
0.00234 µM | 115
0.00702 µM | 128
0.0211 µM | 131
0.0632 µM | 143
0.19 µM | 134
0.569 µM | 140
1.71 µM | 145
5.12 µM | 106
15.4 µM | 10.4
46.1 µM | 6.51

AUC of viability dose-response curve
Conditions | [1] | [2] | [3]
HPLM + 10% dialyzed FBS | 402 | 421 | 417
RPMI 5 mM glucose + 10% FBS | 409 | 402 | 407
RPMI 5 mM glucose + 10% dialyzed FBS | 406 | 399 | 401

Fc1ccc(Cl)cc1-c1nc(Nc2ccncc2)c2nccnc2n1
AUC of viability dose-response curve
Conditions | [1] | [2] | [3]
HPLM + 10% dialyzed FBS | 461 | 463 | 453
RPMI 5 mM glucose + 10% FBS | 438 | 457 | 464
RPMI 5 mM glucose + 10% dialyzed FBS | 442 | 451 | 467

NC1(C(=O)N[C@@H](CCO)c2ccc(Cl)cc2)CCN(c2ncnc3[nH]ccc23)CC1
AUC of viability dose-response curve
Conditions | [1] | [2] | [3]
HPLM + 10% dialyzed FBS | 409 | 391 | 375
RPMI 5 mM glucose + 10% FBS | 413 | 362 | 378
RPMI 5 mM glucose + 10% dialyzed FBS | 423 | 378 | 356

CC(C)c1cnn2c(NCc3ccccc3)cc(N[C@@H](CO)[C@H](O)CO)nc12
Conditions | AUC of viability dose-response curve | cell viability [%]
[1], HPLM + 10% dialyzed FBS | 297 | –
[1], RPMI 5 mM glucose + 10% FBS | 303 | –
[1], RPMI 5 mM glucose + 10% dialyzed FBS | 302 | –
[2], HPLM + 10% dialyzed FBS | 327 | –
[2], RPMI 5 mM glucose + 10% FBS | 313 | –
[2], RPMI 5 mM glucose + 10% dialyzed FBS | 320 | –
[3], HPLM + 10% dialyzed FBS | 299 | –
[3], RPMI 5 mM glucose + 10% FBS | 290 | –
[3], RPMI 5 mM glucose + 10% dialyzed FBS | 299 | –
[5], 0.000781 µM | – | 121
[5], 0.00234 µM | – | 128
[5], 0.00702 µM | – | 124
[5], 0.0211 µM | – | 127
[5], 0.0632 µM | – | 129
[5], 0.19 µM | – | 127
[5], 0.569 µM | – | 120
[5], 1.71 µM | – | 35.4
[5], 5.12 µM | – | 8.12
[5], 15.4 µM | – | 5.35
[5], 46.1 µM | – | 4.01

cell viability [%], [4]
Conditions | HPLM + 10% dialyzed FBS | RPMI 5 mM glucose + 10% dialyzed FBS
0.000781 µM | 117 | 121
0.00234 µM | 140 | 134
0.00702 µM | 120 | 121
0.0211 µM | 119 | 123
0.0632 µM | 142 | 120
0.19 µM | 136 | 121
0.569 µM | 79.9 | 80.7
1.71 µM | 9.33 | 8.71
5.12 µM | 5.66 | 5.19
15.4 µM | 4.28 | 3.66
46.1 µM | 1.69 | 1.44

Cn1cc(CNCC2CCN(c3ncc(C(=O)NO)cn3)CC2)c2ccccc21
AUC of viability dose-response curve
Conditions | [1] | [2] | [3]
HPLM + 10% dialyzed FBS | 268 | 262 | 231
RPMI 5 mM glucose + 10% FBS | 276 | 255 | 238
RPMI 5 mM glucose + 10% dialyzed FBS | 271 | 273 | 239

O=C1c2c(O)cc(O)cc2O[C@H](c2ccc(O)c(O)c2)[C@H]1O
cell viability [%], [4]
Conditions | HPLM + 10% dialyzed FBS | RPMI 5 mM glucose + 10% FBS
0.000781 µM | 113 | 121
0.00234 µM | 120 | 123
0.00702 µM | 132 | 136
0.0211 µM | 113 | 150
0.0632 µM | 117 | 126
0.19 µM | 125 | 126
0.569 µM | 127 | 122
1.71 µM | 143 | 122
5.12 µM | 126 | 127
15.4 µM | 127 | 125
46.1 µM | 131 | 128

AUC of viability dose-response curve
Conditions | [1] | [2] | [3]
HPLM + 10% dialyzed FBS | 469 | 459 | 454
RPMI 5 mM glucose + 10% FBS | 475 | 453 | 470
RPMI 5 mM glucose + 10% dialyzed FBS | 453 | 465 | 450

CCCNC(=O)[C@H]1O[C@@H]1C(=O)N[C@H](C(=O)N1CCC[C@H]1C(=O)OC)C(C)CC (stereo partly specified)
AUC of viability dose-response curve
Conditions | [1] | [2] | [3]
HPLM + 10% dialyzed FBS | 444 | 446 | 439
RPMI 5 mM glucose + 10% FBS | 421 | 416 | 420
RPMI 5 mM glucose + 10% dialyzed FBS | 449 | 424 | 433

O=C(Nc1ccccc1Br)N[C@@H]1CCN(c2ccc(C(F)(F)F)cn2)C1
cell viability [%], [4]
Conditions | HPLM + 10% dialyzed FBS | RPMI 5 mM glucose + 10% FBS
0.000781 µM | 119 | 117
0.00234 µM | 121 | 94.6
0.00702 µM | 136 | 107
0.0211 µM | 131 | 122
0.0632 µM | 127 | 113
0.19 µM | 121 | 112
0.569 µM | 126 | 105
1.71 µM | 133 | 112
5.12 µM | 122 | 98.9
15.4 µM | 120 | 106
46.1 µM | 117 | 85

AUC of viability dose-response curve
Conditions | [1] | [2] | [3]
HPLM + 10% dialyzed FBS | 448 | 448 | 469
RPMI 5 mM glucose + 10% FBS | 432 | 443 | 461
RPMI 5 mM glucose + 10% dialyzed FBS | 447 | 454 | 469

NCC1(CC(=O)O)CCCCC1
cell viability [%], [4]
Conditions | HPLM + 10% dialyzed FBS | RPMI 5 mM glucose + 10% dialyzed FBS
0.000781 µM | 102 | 126
0.00234 µM | 113 | 122
0.00702 µM | 107 | 113
0.0211 µM | 122 | 119
0.0632 µM | 120 | 124
0.19 µM | 130 | 117
0.569 µM | 96.2 | 78
1.71 µM | 59.5 | 59.1
5.12 µM | 121 | 140
15.4 µM | 127 | 136
46.1 µM | 132 | 112

AUC of viability dose-response curve
Conditions | [1] | [2] | [3]
HPLM + 10% dialyzed FBS | 468 | 466 | 460
RPMI 5 mM glucose + 10% FBS | 442 | 434 | 475
RPMI 5 mM glucose + 10% dialyzed FBS | 458 | 459 | 459
